From patent US11040981B2, “Pyrrolotriazine compounds and methods of inhibiting TAM kinases” (Syros Pharmaceuticals, Inc., priority 2017, dated 2021)

Legend:
[1] = target: T1, AXL (Homo sapiens, UniProt P30530); test: TR-FRET kinase activity assay, AXL; assay type: biochemical; conditions: ATP at Km, 60 minutes
T1 sequence (P30530 26-894): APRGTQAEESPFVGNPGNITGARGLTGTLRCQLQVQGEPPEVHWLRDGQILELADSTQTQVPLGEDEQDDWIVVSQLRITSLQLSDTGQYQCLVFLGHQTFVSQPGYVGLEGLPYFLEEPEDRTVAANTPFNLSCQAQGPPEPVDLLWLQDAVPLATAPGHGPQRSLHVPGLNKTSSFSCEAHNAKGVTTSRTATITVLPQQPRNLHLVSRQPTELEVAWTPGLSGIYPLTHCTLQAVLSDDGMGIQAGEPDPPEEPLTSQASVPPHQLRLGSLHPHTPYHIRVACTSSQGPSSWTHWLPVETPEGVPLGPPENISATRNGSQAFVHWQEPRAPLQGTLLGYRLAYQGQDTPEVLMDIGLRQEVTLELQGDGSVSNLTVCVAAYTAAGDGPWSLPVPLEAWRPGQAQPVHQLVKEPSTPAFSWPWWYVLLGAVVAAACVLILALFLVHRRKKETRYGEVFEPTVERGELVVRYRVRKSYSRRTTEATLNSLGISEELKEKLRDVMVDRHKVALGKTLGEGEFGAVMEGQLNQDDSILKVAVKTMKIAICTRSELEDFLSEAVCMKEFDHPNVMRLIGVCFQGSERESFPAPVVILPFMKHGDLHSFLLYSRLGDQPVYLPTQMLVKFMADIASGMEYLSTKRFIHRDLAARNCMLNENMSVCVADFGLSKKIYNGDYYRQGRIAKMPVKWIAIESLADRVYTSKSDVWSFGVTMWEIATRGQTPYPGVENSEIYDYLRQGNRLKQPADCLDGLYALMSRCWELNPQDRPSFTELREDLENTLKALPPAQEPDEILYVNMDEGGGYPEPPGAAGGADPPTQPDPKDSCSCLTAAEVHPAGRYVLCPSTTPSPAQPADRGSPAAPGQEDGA
Method in brief: (§1)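 IC50 reflects the drop in TR-FRET between Eu anti-phosphotyrosine antibody and labelled peptide after a 60-minute room-temperature reaction. Buffer was 50 mM HEPES pH 7.5 with 10 mM MgCl2, 1 mM EGTA, 0.01% Brij 35 and 1 mM DTT, with ATP at Km per enzyme and EDTA quench.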

[2] = target: T2, MERTK (Homo sapiens, UniProt Q12866); test: TR-FRET kinase activity assay, MERTK; assay type: biochemical; conditions: for IC50: TR-FRET activity assay, ATP at Km, 60 minutes, read-out: Mer IC50
T2 sequence (Q12866 21-999): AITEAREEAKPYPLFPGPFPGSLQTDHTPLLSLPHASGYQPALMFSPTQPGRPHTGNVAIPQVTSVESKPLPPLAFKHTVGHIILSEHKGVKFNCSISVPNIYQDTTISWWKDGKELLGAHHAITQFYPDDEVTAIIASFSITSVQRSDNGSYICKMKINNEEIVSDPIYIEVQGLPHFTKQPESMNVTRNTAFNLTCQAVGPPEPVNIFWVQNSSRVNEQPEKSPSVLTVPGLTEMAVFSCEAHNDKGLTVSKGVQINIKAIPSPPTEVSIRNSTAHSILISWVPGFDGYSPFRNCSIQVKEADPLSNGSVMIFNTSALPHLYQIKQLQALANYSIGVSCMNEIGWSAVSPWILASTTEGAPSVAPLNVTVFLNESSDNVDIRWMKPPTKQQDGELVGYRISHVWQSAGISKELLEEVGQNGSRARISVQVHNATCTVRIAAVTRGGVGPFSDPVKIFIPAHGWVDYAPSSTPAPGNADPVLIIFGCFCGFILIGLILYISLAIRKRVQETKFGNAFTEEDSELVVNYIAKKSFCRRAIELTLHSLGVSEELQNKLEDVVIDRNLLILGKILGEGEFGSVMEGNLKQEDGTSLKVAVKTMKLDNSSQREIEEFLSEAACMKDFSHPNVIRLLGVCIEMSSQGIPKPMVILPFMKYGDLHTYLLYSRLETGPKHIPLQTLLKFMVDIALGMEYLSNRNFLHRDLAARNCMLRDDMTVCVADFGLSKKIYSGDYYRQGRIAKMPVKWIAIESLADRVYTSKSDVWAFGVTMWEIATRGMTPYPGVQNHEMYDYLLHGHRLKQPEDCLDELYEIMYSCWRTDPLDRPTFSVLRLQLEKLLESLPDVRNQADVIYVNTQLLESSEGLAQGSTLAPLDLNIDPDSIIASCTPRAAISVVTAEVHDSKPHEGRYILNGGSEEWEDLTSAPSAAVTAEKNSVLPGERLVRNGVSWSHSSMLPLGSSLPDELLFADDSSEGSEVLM
Method in brief: as §1

[3] = ratio calculated as FLT3 IC50/Mer IC50
[4] = ratio of Mer to FLT3: FLT3 IC50/Mer IC50

SMILES | IC50 [1] [nM] | IC50 [2] [nM] | FLT3/Mer ratio (FLT3 IC50/Mer IC50) [2, 3] | FLT3/Mer ratio (FLT3 IC50/Mer IC50) [2, 4]
COCC(C)Nc1ncc2c(-c3ccc4ncoc4c3)cc(C3CCC(O)CC3)n2n1 (stereo not drawn) [Compound 552] | ≤ 100 | ≤ 100 | +++ (“+++” represents a ratio of >100) | –
COC[C@H](C)Nc1ncc2c(-c3cnn(C4COC4)c3)cc(C3CCC(F)(F)CC3)n2n1 [Compound 515] | 100 to 1000 | ≤ 100 | +++ (“+++” represents a ratio of >100) | –
C[C@@H](COC(F)F)Nc1ncc2c(-c3cnn(C(C)(C)C(=O)N4CCN(C)CC4)c3)cc([C@H]3CC[C@H](O)CC3)n2n1 [Compound 593] | ≤ 100 | ≤ 100 | +++ (“+++” represents a ratio of >100) | –
CCCCC[C@H](C)Nc1ncc2c([C@H]3CC[C@@H](C(=O)N4CCS(=O)(=O)CC4)CC3)cc([C@H]3CC[C@H](O)CC3)n2n1 [Compound 137] | ≤ 100 | ≤ 100 | – | +++ (“+++” represents a ratio of >100)
C[C@@H](CC(F)(F)F)Nc1ncc2c(-c3ccc([S@@](C)(=N)=O)nc3)cc([C@H]3CC[C@H](O)CC3)n2n1 [Compound 541] | ≤ 100 | ≤ 100 | ++ (“++” represents a ratio of between 10 and 100) | –
COC[C@H](C)Nc1ncc2c(-c3ccnc(N4CCO[C@H](C(C)(C)O)C4)c3)cc([C@H]3CC[C@H](O)CC3)n2n1 [Compound 558] | ≤ 100 | ≤ 100 | +++ (“+++” represents a ratio of >100) | –
Cc1nnc(C(C)(C)n2cc(-c3cc([C@H]4CC[C@H](O)CC4)n4nc(N[C@@H](C)COC(F)F)ncc34)cn2)o1 [Compound 517] | ≤ 100 | ≤ 100 | +++ (“+++” represents a ratio of >100) | –
COC[C@H](C)Nc1ncc2c([C@H]3CC[C@@H](C(=O)N4CC5(COC5)C4)CC3)cc([C@H]3CC[C@H](O)CC3)n2n1 [Compound 579] | 100 to 1000 | ≤ 100 | +++ (“+++” represents a ratio of >100) | –
COC[C@H](C)Nc1ncc2c(-c3cnn(C4COC4)c3)cc([C@@H]3CC[C@H](O)C(C)(C)C3)n2n1 [Compound 571] | 100 to 1000 | ≤ 100 | ++ (“++” represents a ratio of between 10 and 100) | –
COC[C@H](C)Nc1ncc2c(-c3ccnc(N4CCOC(C(C)(C)O)C4)c3)cc([C@H]3CC[C@H](O)CC3)n2n1 (stereo partly drawn) [Compound 534] | ≤ 100 | ≤ 100 | +++ (“+++” represents a ratio of >100) | –
CC[C@H](C)Nc1ncc2c(C3CCN(c4nccc(C)n4)CC3)cc([C@H]3CC[C@H](O)CC3)n2n1 [Compound 136, (trans)-4-(2-((S)-sec-butylamino)-5-(1-(4-methylpyrimidin-2-yl)piperidin-4-yl)pyrrolo[2,1-f][1,2,4]triazin-7-yl)cyclohexanol] | 100 to 1000 | ≤ 100 | – | +++ (“+++” represents a ratio of >100)
C[C@@H](COC(F)F)Nc1ncc2c(-c3ccc(S(C)(=O)=O)nc3)cc([C@H]3CC[C@H](O)CC3)n2n1 [Compound 513] | ≤ 100 | ≤ 100 | +++ (“+++” represents a ratio of >100) | –
COC[C@H](C)Nc1ncc2c(-c3cnn(C(C)(C)C(=O)N4C[C@@H](C)N[C@@H](C)C4)c3)cc([C@H]3CC[C@@H](O)CC3)n2n1 [Compound 591] | ≤ 100 | ≤ 100 | +++ (“+++” represents a ratio of >100) | –
